The source of these data is patent US5665779A, “Pharmaceutical composition for inhibiting the infection with AIDS virus” (Zaidan, Hojin, Biseibutsu, Kagaku, Kenkyu, Kai, priority 1991, dated 1997).

Data set [1] concerns HIV (HTLV-IIIB strain) in MT-4 cells (human T-cell line). Kind of data set: Inhibition of infection of human T-cells (MT-4) with HIV, HIV antigen-positive cells by indirect immunofluorescence. The format is cell-based. As to conditions: for EC50: MT-4 cells, read-out: 50% Effective concentration (ED50) against HIV. Here is the method:
Effects of D-β-lysylmethanediamine inhibitory to infection of human T-cells with HIV were examined in a similar manner to the assay methods described in the "Proc. Natl. Acad, Sci. USA," 80, 6061-6065 (1983); "J. Antibiot.", 40, 1077-1078, (1987); "J. Antibiot.", 42, 344-346 (1989) and "J. Antibiot." 44, 1228-1236 (1991).
1×10^5 Cells/ml of MT-4 cells (human T-cell line) in phosphate buffered saline were seeded into Costar 48-well plates in an amount of 0.5 ml/well. Each well was added with 0.05 ml of a solution of the test compound, namely D-β-lysylmethanediamine (dissolved at different concentrations of 3, 10, 30 and 100 μg per ml in phosphate buffered saline). After incubation for 2 hours at 37° C. under 5% CO2, the MT-4 cells were infected with 0.05 ml of HIV (HTLV-IIIB strain) as added in an amount of multiplicity of infection (m.o.i) of 0.025 to 0.05 in each well. The plates were incubated for 4 days at 37° C. under 5% CO2 so that the T-cells were treated in the presence of the test compound at the different concentrations.
Portions of the incubated cultures were taken and the MT-4 cells were smeared onto slide glasses, dried and fixed with acetone. The presence of the HIV antigen-positive MT-4 cells was detected by the indirect immunofluoroescent assay [Y. Hinuma et al., "Proc. Natl. Acad. Sci. USA," 78, 6476-6480, (1981) and Y. Takeuchi et al., "Gann.", 78, 11-15 (1987)]. To this end, the cell smears, that is, the acetone-fixed cell smears were treated at 37° C. for 30 minutes with such serum of AIDS patient at a dilution of 1:10 in phosphate buffered saline, which was employed as the first antibody. After washing subsequently with phosphate buffered saline, the MT-4 cells were treated at 37° C. for 30 minutes with fluorescent isothiocyanate-conjugated rabbit anti-human IgG serum (Cappel Laboratories, Cocharanville, Pa., USA), which was employed as the second antibody. After the cell smears were then washed with phosphate buffered saline and covered with a cover glass, the MT-4 cells were examined under a fluorescence microscope. Percentages of the number of the viral antigen-positive MT-4 cells (namely, immunofluorescent cells where the HIV-associated antigens were present and expressed) in total cells were calculated.
For the control tests of estimating the number of the total cells under test, the above test procedures were repeated without addition of D-β-lysylmethanediamine.
In order to evaluate the activity of D-β-lysylmethanediamine to inhibit the infection of human T-cells, namely the MT-4 cells with HIV, calculation was made of the percentages (T/C, %) of the number (T) of the HIV antigen-positive cells as measured in the above-mentioned tests where the incubation of MT-4 cells was effected in the presence of the test compound, against the number (C) of the HIV antigen-positive cells as measured in the above-mentioned control tests where the incubation of MT-4 cells was effected without the addition of the test compound. The results of such calculation of the T/C values (%) are shown in Table 1 in term of rate (%) of presence or occurrence of the HIV antigen-positive cells.

The nature of a further data set: Hygroscopicity. The format is physicochemical. Conditions: colorless powdery substance, Referential Example 1.
The conditions of data set [2]: colorless powder; reported earlier; cited from earlier work.
A short description of data set [3]: Extractability with organic solvents. The format is physicochemical. Conditions: from liquid portion of the culture.
The next data set in a line: Solubility in water. As to conditions: in words. The format is physicochemical.
A further data set deals with T1, protease of HIV (HIV-1 M:B_HXB2R, UniProt P04585).
T1 construct: preparation not described
Kind of data set: Activity inhibitory to protease of HIV. The format is biochemical. As to conditions: 100 μg/ml.

Data set [4] has as its target T2, reverse transcriptase of HIV (HIV-1 M:B_HXB2R, UniProt P04585).
T2 construct: preparation not described
The data set is described as follows: Activity inhibitory to reverse transcriptase of HIV. The data set is classed as biochemical. As to conditions: 100 μg/ml. From the text: Thus, it is apparent that D-β-lysylmethanediamine can inhibit strongly the infection of human T-cells with HIV by any mechanism yet unknown.

Data set [5] is described as follows: Acute toxicity in mice, intravenous. As to conditions: mouse, in vivo, read-out: Dosage tolerated without death (acute toxicity). Here is the method:
D-β-Lysylmethanediamine used according to this invention is characterised by its low toxicity to mammalian animals. For instance, in the tests of estimating acute toxicity of this compound where mice were intravenously administered with D-β-lysylmethanediamine, the mice having received administration of D-β-lysylmethanediamine could tolerate a dosage of 250 mg/kg of D-β-lysylmethanediamine without involving their death.

The test system of the next data set is Gram-positive bacteria. Conditions: J. Antibiotics 39(3), 476 (1986); Kokai Sho-62-114947; cited from earlier work.
The subject of the next data set is MT-4 cells. The data set is described as follows: Cytotoxicity to MT-4 cells in the absence of HIV. The data set is classed as cell-based, human. As to conditions: even at a concentration of 100 μg/ml. On the procedure: Furthermore, cytotoxicity of D-β-lysylmethanediamine to the MT-4 cells was estimated. This was done by incubating the MT-4 cells at varying concentrations of D-β-lysylmethanediamine added and in the absence of HIV but in the same manner of incubation and under the same conditions of incubation of MT-4 cells as those employed in the above-mentioned test procedures of assaying the activity of D-β-lysylmethanediamine to inhibit the infection of T-cells with HIV. That the cytotoxicity was not observed is represented by the symbol "-" in Table 1 below.

The mark [6] stands for this setting: Human immunodeficiency virus 1, IIIB, MT4, 96 h.

≈ marks a conversion by molar mass, not a printed value. Read-outs that look alike come from different tables or passages of the source. Where only a bound is given, the exact number is not on record here.

In the case of `OC[C@@H]1CC[C@H](n2cnc3c(O)ncnc32)O1` [DDI, 2',3'-dideoxyinosine, reference compound], the EC50 in [1] (setting [6]) was determined as 0.46 µg/mL (≈ 1.95 µM). Besides, the “Effect of inhibiting the infection of human T-cells with HIV compared with D-β-lysylmethanediamine (in words)” value in data set [1] (relative to D-β-lysylmethanediamine, from ED50) is reported as “to the same extent”.

In the case of `NCCC[C@@H](N)CC(=O)NCN` [D-β-lysylmethanediamine hemicarbonate], the Hygroscopicity result (in the data set “Hygroscopicity”; in data set [2]) was “hygroscopic” throughout.

`NCCC[C@@H](N)CC(=O)NCN` [D-β-lysylmethanediamine]: the “Extraction with butanol, butyl acetate, chloroform and other organic solvents” value in [3] is “substantially connot be extracted”. Besides, the Solubility in water entry in the data set “Solubility in water” was “well soluble in water”. Further, the “Activity inhibitory to protease of HIV” value on protease of HIV is “nor any activity inhibitory to protease of HIV”. Moreover, in [4], the “Activity inhibitory to reverse transcriptase of HIV” value is “neither any activity inhibitory to reverse transcriptase of HIV”. Further, in data set [1] (Human immunodeficiency virus 1, IIIB, MT4, 96 h, 3 μg/ml, T/C % vs control without test compound, 4 days, 37° C., read-out: Rate (%) of presence of HIV antigen-positive cells), the activity at 3 µg/mL was 30%. Also, the activity at 10 µg/mL in data set [1] (Human immunodeficiency virus 1, IIIB, MT4, 96 h, 10 μg/ml, T/C % vs control without test compound, 4 days, 37° C., read-out: Rate (%) of presence of HIV antigen-positive cells) came out at 15%. Further, the activity at 30 µg/mL in data set [1] (Human immunodeficiency virus 1, IIIB, MT4, 96 h, 30 μg/ml, T/C % vs control without test compound, 4 days, 37° C., read-out: Rate (%) of presence of HIV antigen-positive cells) worked out at 10%. Further, the activity at 100 µg/mL in [1] (Human immunodeficiency virus 1, IIIB, MT4, 96 h, 100 μg/ml, T/C % vs control without test compound, 4 days, 37° C., read-out: Rate (%) of presence of HIV antigen-positive cells) was determined as 5%. The EC50 in data set [1] (setting [6]) was 0.62 µg/mL (≈ 3.56 µM). The “Reduction of the number of HIV antigen-positive cells (in words)” value in [1] (concentrations of no more than 100 μg/ml) is on record as “reduce significantly”. The MTD in [5] is at least 250 mg/kg. Besides, in the data set with Gram-positive bacteria, the “Antibacterial activity against Gram-positive bacteria” value was “weak antibacterial activity”. Also, the “Cytotoxicity (in words)” value in the data set on MT-4 cells is “no cytotoxicity”.
